From patent US11084783B2, “O-alkyl-benzylideneguanidine derivatives and therapeutic use for the treatment of disorders associated with an accumulation of misfolded proteins” (INFLECTIS BIOSCIENCE, priority 2014, dated 2021) come the findings set out here.

Assay [1] deals with amyloid-beta 1-42 injured primary cortical rat neurons. In words: In vitro Alzheimer disease model: amyloid-beta 1-42 injured primary cortical rat neurons. Conditions: Amyloid-beta 1-42 20 μM, 24 hours; total number of neurons (MAP-2). The class given is cell-based. On the procedure: Rat cortical neurons were cultured as described by Singer et al., (1999 J. Neuroscience 19 pp2455-63) and Callizot et al., (2013 J.Neurosci. Res. 91 pp706-16). Pregnant females (Wistar; Janvier Labs) at 15 days of gestation were killed by cervical dislocation. Fetuses were collected and immediately placed in ice-cold L15 Leibovitz medium (Pan Biotech, Batch: 9310614) with a 2% penicillin (10,000 U/mI) and streptomycin (10 mg/ml) solution (PS; Pan Biotech, Batch: 1451013) and 1% bovine serum albumin (BSA; Pan Biotech, Batch: h140603). Cortex was treated for 20 min at 37° C. with a trypsin-EDTA (Pan Biotech, Batch: 5890314) solution at a final concentration of 0.05% trypsin and 0.02% EDTA. […] Viable cells were counted in a Neubauer cytometer, using the trypan blue exclusion test. […]
The Amyloid-beta1-42 preparation was done following the procedure described by Callizot et al., 2013. […] Amyloid-beta 1-42 preparation was added to a final concentration of 20 μM (including to ˜2 μM of toxic oligomers measured by WB) diluted in control medium in presence of drugs. […]
The immunolabeled cultures were automatically examined with ImageXpress (Molecular device USA) at ×20 magnification. For each condition, 30 automatically fields per well (representing ˜80% of the total surface of the well) from 3 wells were analyzed. […] All values were expressed as mean +/−SEM (s.e.mean) (n=3 wells per condition per culture).

For assay [2], the system named is neonatal rat cardiomyocytes. Description: Hypoxia-induced apoptosis in cultured neonatal rat cardiomyocytes. Type of assay: cell-based. Conditions: hypoxia 0.3% O2 for 36 h, apoptotic cells by FACS. From the text: Primary cultures of neonatal rat cardiomyocytes were obtained from the ventricles of 1-day-old Sprague Dawley rats (Janvier, France). The rats were euthanized and their hearts excised. Hearts cut into small pieces (1-2 mm^3) and enzymatically digested using the Neonatal Heart Dissociation Kit rat and the gentleMACS™ Dissociator (MiltenyiBiotec, Germany). After dissociation, the homogenates were filtered (70 μm) to obtain a single-cell suspension. Isolated cells were collected by centrifugation and resuspended in Dulbecco's Modified Eagle's Medium (DMEM) containing 10% horse serum (HS), 5% fetal bovine serum (FBS) and 1% penicillin/streptomycin. Cultures were enriched with myocytes by pre-plating for 90 min to deplete the population of non-myocytes. Non-attached cells were plated onto 6- or 96-well plates at an appropriate cell density. […]
After 24 hours, the cardiomyocytes were treated with different concentrations of test compound in culture medium with 0.1% DMSO. […] Thirty minutes after starting the treatments, the cells were incubated in the hypoxic culture chamber (N2/CO2, 95%/5%; final measured O2: 0.3%) for 36 hours. […]
At the end of the treatment period, flow cytometry were performed to measure the amount of apoptotic cells. […] The mixture was incubated for 15 min in the dark at room temperature, and cellular fluorescence was then measured by FACS scan flow cytometry.

Take `CCCONC(=N)N/N=C/c1ccccc1Cl` [Compound 12, 2-(2-chlorobenzylidene)-N-propoxyhydrazinecarboximidamide]: the “protection of amyloid-beta 1-42 injured primary cortical rat neurons (FIG. 4)” value in assay [1] is “dose dependent protection”. For `CCO/N=C(\N)N/N=C/c1ccccc1Cl` [Compound 10, 2-(2-chlorobenzylidene)-N′-ethoxyhydrazinecarboximidamide], the “protection from hypoxia-induced apoptosis (FIG. 10)” value in assay [2] was “protects”.
